Test results as given in ChEMBL document CHEMBL3875193, “Triazolopyridine ethers as potent, orally active mGlu2 positive allosteric modulators for treating schizophrenia” (Bioorg Med Chem, 2017).
Converted amounts (≈) assume the structure as drawn. The source made the active and inactive calls. No cut-off for these calls is given here.

What was measured:
[1] = Unbound fraction in MK-801 induced cognitive deficit C57Bl6/Tac mouse plasma at 10 mg/kg, po; assay type: ADME, organism-based; details: in vivo
[2] = Drug level in C57Bl/6J mouse brain at 3 mg/kg, po pretreated for 30 mins followed by PCP challenge measured after 1 hr; assay type: ADME, organism-based; details: read-out: Drug uptake
[3] = Drug level in MK-801 induced cognitive deficit C57Bl6/Tac mouse plasma at 1 mg/kg, po; assay type: ADME, organism-based; details: in vivo
[4] = Drug level in C57Bl/6J mouse plasma at 10 mg/kg, po pretreated for 30 mins followed by PCP challenge measured after 1 hr; assay type: ADME, organism-based
[5] = Thermodynamic aqueous solubility of the compound in pH 6.5 phosphate buffer; assay type: physicochemical; details: read-out: Therm_solubility
[6] = Protein binding in mouse plasma assessed as fraction unbound; assay type: ADME, cell-free
[7] = target: Metabotropic glutamate receptor 2 (Homo sapiens, UniProt Q14416); assay: Positive allosteric modulation of human mGlu2 receptor expressed in HEK293 cells coexpressing rat glutamate transporter assessed as inhibition of forskolin-stimulated cAMP production measured after 30 mins in presence of orthosteric antagonist LY341495 by FLIPR assay relative to glutamate; assay type: functional, cell-based
[8] = test system: Mus musculus; assay: Anti-psychotic activity in C57Bl/6J mouse assessed as inhibition of PCP-induced hyperlocomotion at 10 mg/kg, po pretreated for 30 mins followed by PCP challenge measured for 2 hrs; assay type: functional, organism-based
[9] = Ratio of drug level in MK-801 induced cognitive deficit C57Bl6/Tac mouse brain to plasma at 10 mg/kg, po; assay type: ADME, organism-based; details: read-out: BPR
[10] = Drug level in MK-801 induced cognitive deficit Sprague-Dawley rat brain at 10 mg/kg, po; assay type: ADME, organism-based; details: in vivo, read-out: Drug uptake
[11] = Ratio of drug level in MK-801 induced cognitive deficit Sprague-Dawley rat brain to plasma at 10 mg/kg, po; assay type: ADME, organism-based; details: read-out: BPR
[12] = Ratio of drug level in MK-801 induced cognitive deficit C57Bl6/Tac mouse brain to plasma at 1 mg/kg, po; assay type: ADME, organism-based; details: read-out: BPR
[13] = Metabolic stability in mouse liver microsomes assessed as compound remaining measured after 10 mins; assay type: ADME; details: read-out: Stability
[14] = Unbound fraction in MK-801 induced cognitive deficit Sprague-Dawley rat plasma at 3 mg/kg, po measured after 1 hr; assay type: ADME, organism-based; details: in vivo
[15] = Unbound fraction in C57Bl/6J mouse plasma at 10 mg/kg, po pretreated for 30 mins followed by PCP challenge measured after 1 hr; assay type: ADME, organism-based; details: in vivo
[16] = test system: Rattus norvegicus; assay: Reversal of MK-801 induced cognitive deficits in Sprague-Dawley rat assessed as reduction in number of trials to reach set shift at 10 mg/kg, po administered 25 mins prior to MK-801 measured after 35 mins; assay type: functional, organism-based
[17] = Tmax in Sprague-Dawley rat at 3 mg/kg, po; assay type: ADME, organism-based; details: in vivo
[18] = Protein binding in rat plasma assessed as fraction unbound; assay type: ADME, cell-free
[19] = Drug level in MK-801 induced cognitive deficit C57Bl6/Tac mouse plasma at 3 mg/kg, po; assay type: ADME, organism-based; details: in vivo

Sequence of Metabotropic glutamate receptor 2 (Q14416 19-872 limits assumed): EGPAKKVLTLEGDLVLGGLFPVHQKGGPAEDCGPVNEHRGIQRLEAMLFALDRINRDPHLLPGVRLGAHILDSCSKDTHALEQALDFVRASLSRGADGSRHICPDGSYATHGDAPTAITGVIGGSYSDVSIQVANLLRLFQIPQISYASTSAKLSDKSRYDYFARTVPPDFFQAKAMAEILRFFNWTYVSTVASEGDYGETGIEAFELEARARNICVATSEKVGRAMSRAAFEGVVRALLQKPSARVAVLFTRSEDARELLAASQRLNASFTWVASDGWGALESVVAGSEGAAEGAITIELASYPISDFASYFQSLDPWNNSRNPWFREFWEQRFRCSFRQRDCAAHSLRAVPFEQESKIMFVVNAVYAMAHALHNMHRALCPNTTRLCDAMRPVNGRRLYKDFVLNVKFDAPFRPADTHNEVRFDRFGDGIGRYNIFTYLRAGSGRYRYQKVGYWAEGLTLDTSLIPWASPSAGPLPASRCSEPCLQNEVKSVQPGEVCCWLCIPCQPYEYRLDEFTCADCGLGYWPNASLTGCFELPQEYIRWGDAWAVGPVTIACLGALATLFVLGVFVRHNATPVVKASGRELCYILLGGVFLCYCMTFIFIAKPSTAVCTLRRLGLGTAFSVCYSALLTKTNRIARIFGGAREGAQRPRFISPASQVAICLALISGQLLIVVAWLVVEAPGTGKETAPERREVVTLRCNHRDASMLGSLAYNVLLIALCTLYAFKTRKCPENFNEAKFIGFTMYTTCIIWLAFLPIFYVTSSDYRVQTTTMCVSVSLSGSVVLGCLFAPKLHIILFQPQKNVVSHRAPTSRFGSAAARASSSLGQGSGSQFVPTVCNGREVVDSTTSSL

**Q.** With `FC(F)(F)c1c(OC[C@H]2C[C@@H]2c2ccc(Cl)cc2)ccn2c(CC3CC3)nnc12` as the compound, how does the “Cp(f)” value [1] read?
**A.** 41 nM

**Q.** And the concentration at 1 h [2]?
**A.** 1500 nM

**Q.** What about the concentration [3] of the same compound?
**A.** 840 nM

**Q.** And the concentration at 1 h [4]?
**A.** 15400 nM

**Q.** And the solubility thermodynamic [5]?
**A.** 2 µg/mL (≈ 4.74 µM)

**Q.** And the Fu [6]?
**A.** 0.5%

**Q.** What about the Emax [7] of the same compound?
**A.** 99%

**Q.** What about the inhibition [8] of the same compound?
**A.** Active

**Q.** And the Kp [9]?
**A.** 0.44

**Q.** What about the concentration [10] of the same compound?
**A.** 5800 nM

**Q.** And the Kp [11]?
**A.** 0.59

**Q.** What about the Kp [12] of the same compound?
**A.** 0.29

**Q.** And the remaining at 10 min [13]?
**A.** 74%

**Q.** And the “Cp(f)” value [14]?
**A.** 230 nM

**Q.** And the “Cp(f)” value [15]?
**A.** 76 nM

**Q.** And the Activity [16]?
**A.** Active

**Q.** What about the Tmax [17] of the same compound?
**A.** 2.7 h

**Q.** What about the Fu [18] of the same compound?
**A.** 0.6%

**Q.** What about the concentration [19] of the same compound?
**A.** 2200 nM
